Where two headings read alike, the source gives them in different places.

One experiment concerns KARN cells (Jurkat 2C4). In words: cells. It is filed as cell-based. To be noted: Homo sapiens, Jurkat. Summed up:
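Jurkat 2C4 (KARN) cells dosed with test compounds up to 40 μM final, 0.4% DMSO, overnight at 5% CO2; luciferase read by Steady-Glo luminescence after 10 min at room temperature. DMSO set as 0% and 2 μM SAHA as 100% induction; 4-parameter fit of percent activation.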

The target of the next experiment is T1, Recombinant human HDAC1 (Homo sapiens, UniProt Q13547).
T1 construct: FLAG (C); made in house
Nature of the experiment: Human HDAC enzyme inhibitor Fluor-de-Lys assay, HDAC1. It is filed as biochemical. The gist of the method:
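Fluor-de-Lys format at room temperature (23° C.): compounds titrated 10-point, 1:3, preincubated with HDAC before substrate addition; HDAC1 run at 0.3 nM enzyme with 20 μM BML-KI104. Developer with excess HDAC inhibitor ends the reaction, and trypsin-liberated AMC fluorescence is the read-out.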

Experiment [1] has as its target T2, Recombinant human HDAC3/SMRT heterodimer (Homo sapiens, UniProt O15379).
T2 construct: FLAG (C); made in house
Nature of the experiment: Human HDAC enzyme inhibitor Fluor-de-Lys assay, HDAC3/SMRT. It is filed as biochemical.

The next experiment concerns the target T3, Recombinant human HDAC8 (Homo sapiens, UniProt Q9BY41).
T3 construct: purchased Enzo Life Sciences BML-SE145-0100
T3 sequence (Q9BY41 1-377): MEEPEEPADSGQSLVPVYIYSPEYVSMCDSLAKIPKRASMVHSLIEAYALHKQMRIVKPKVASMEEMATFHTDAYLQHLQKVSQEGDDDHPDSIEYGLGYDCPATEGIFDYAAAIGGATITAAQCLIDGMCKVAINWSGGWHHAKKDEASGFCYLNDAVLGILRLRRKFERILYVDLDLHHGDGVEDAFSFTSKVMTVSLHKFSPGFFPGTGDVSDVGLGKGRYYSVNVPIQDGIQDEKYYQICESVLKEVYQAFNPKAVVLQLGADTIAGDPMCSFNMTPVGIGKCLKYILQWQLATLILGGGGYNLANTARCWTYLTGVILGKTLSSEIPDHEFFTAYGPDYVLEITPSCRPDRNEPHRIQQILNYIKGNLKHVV
Nature of the experiment: Human HDAC enzyme inhibitor Fluor-de-Lys assay, HDAC8. It is filed as biochemical.

The target in the next experiment is T4, Recombinant human HDAC2 (Homo sapiens, UniProt Q92769).
T4 construct: Full length human HDAC2-FLAG was expressed in baculovirus infected Sf9 cells; FLAG (C); made in house; host or cells: Sf9 (baculovirus)
Nature of the experiment: Human HDAC enzyme inhibitor Fluor-de-Lys assay, HDAC2. The experiment is classed as biochemical. Summed up:
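Fluor-de-Lys format at room temperature (23° C.): compounds titrated 10-point, 1:3, preincubated with HDAC before substrate addition. Developer with excess HDAC inhibitor ends the reaction, and trypsin-liberated AMC fluorescence is the read-out.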

Where [2] appears, read: read-out: Karn EC50 (nM) 0.1% NHS, 0.1% normal human serum.
The mark [3] stands for this setting: read-out: Karn EC50 (nM) 5% NHS, 5% normal human serum.

T2 sequence (O15379 whole entry): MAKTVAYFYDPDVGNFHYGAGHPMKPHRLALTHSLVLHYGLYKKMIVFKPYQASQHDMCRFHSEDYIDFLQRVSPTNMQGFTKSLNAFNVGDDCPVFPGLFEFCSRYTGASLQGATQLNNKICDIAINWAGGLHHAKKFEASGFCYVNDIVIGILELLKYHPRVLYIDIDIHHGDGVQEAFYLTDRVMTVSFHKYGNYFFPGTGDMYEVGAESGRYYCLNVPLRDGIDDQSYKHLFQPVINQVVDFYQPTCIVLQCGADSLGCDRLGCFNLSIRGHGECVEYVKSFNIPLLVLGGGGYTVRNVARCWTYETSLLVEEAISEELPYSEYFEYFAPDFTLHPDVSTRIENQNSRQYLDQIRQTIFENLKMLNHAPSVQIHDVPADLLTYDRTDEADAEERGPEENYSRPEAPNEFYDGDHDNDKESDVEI
T2 sequence (Q9Y618 1-899 partner limits assumed): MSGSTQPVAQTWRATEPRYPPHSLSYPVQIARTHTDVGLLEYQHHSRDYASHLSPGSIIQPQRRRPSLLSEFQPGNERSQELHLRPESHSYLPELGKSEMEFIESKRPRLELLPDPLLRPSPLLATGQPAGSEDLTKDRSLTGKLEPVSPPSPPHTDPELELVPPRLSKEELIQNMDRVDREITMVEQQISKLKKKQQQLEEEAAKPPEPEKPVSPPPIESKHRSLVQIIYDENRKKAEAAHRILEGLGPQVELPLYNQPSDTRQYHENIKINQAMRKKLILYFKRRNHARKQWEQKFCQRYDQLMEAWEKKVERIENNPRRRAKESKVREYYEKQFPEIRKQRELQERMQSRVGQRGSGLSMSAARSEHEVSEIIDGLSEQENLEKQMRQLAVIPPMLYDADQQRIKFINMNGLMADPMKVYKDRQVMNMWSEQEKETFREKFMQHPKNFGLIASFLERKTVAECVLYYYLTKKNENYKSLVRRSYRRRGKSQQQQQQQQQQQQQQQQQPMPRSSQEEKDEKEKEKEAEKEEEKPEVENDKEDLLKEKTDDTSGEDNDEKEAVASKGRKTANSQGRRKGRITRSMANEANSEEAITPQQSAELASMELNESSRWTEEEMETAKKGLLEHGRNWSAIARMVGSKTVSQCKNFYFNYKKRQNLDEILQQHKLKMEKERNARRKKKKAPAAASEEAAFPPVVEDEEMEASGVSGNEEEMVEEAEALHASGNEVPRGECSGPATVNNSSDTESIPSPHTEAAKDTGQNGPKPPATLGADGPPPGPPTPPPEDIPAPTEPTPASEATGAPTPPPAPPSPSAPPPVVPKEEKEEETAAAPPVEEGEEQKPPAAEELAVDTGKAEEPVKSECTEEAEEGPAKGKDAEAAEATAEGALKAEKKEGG
T4 sequence (Q92769 whole entry): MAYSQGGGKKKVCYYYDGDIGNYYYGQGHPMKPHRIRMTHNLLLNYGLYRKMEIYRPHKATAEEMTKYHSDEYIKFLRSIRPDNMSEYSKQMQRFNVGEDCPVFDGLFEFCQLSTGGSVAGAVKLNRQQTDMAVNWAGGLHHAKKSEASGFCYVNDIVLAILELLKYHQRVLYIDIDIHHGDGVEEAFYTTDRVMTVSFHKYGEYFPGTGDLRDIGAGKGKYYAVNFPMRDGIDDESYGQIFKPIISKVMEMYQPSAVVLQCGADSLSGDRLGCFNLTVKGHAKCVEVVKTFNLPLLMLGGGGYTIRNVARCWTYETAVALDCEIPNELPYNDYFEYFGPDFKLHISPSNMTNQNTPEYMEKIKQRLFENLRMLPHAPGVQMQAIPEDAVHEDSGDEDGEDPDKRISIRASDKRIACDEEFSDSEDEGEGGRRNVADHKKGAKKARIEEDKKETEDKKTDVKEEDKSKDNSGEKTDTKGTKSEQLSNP
T1 sequence (Q13547 whole entry): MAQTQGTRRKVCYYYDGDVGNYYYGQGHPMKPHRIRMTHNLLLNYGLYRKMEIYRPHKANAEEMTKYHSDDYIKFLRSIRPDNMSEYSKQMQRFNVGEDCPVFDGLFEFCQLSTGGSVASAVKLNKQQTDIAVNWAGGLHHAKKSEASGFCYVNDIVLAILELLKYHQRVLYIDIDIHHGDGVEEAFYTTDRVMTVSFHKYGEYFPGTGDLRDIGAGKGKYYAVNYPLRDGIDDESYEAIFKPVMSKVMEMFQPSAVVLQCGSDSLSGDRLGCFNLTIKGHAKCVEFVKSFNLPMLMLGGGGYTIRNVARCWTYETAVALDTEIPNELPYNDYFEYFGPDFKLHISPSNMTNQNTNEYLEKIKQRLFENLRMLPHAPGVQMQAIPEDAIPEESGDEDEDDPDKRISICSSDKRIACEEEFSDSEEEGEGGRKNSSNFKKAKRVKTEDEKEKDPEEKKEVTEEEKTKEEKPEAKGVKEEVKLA

As to `CCC(=O)CCCCC[C@H](NC(=O)[C@H]1CC12CCN(C)CC2)c1ncc(-c2cc3ccc(=O)n(C)c3cc2OC)o1` [Compound 198], the values for the EC50 in the experiment with KARN cells (Jurkat 2C4) (setting [2]) and in the experiment on KARN cells (Jurkat 2C4) (setting [3]) were 147 nM and 176 nM, respectively. Also, the IC50 was 0.87 nM on Recombinant human HDAC1, 0.65 nM in experiment [1], more than 900 nM on Recombinant human HDAC8 and 3.8 nM on Recombinant human HDAC2.

As to `CCC(=O)CCCCC[C@H](NC(=O)C1(CC(C)C)CC2(CN(C)C2)C1)c1ncc(-c2ccc3nc(C)ccc3c2)[nH]1` [Compound 157], the figures for the EC50 with KARN cells (Jurkat 2C4) (setting [2]) and with KARN cells (Jurkat 2C4) (setting [3]) were 451 nM and 557 nM, respectively. Further, the IC50 stood at 5.39 nM on Recombinant human HDAC1, 4.01 nM in experiment [1], 4180 nM on Recombinant human HDAC8 and 11.9 nM on Recombinant human HDAC2.

With `CCC(=O)CCCCC[C@H](NC(=O)C1=NOC2(CCN(C)CC2)C1)c1ncc(-c2cc3ccncc3nc2OC)o1` [Compound 216], the EC50 stood at 194 nM in the experiment with KARN cells (Jurkat 2C4) (setting [2]) and 278 nM in the experiment with KARN cells (Jurkat 2C4) (setting [3]). For the same compound, the IC50 at Recombinant human HDAC1 was 7.11 nM; in experiment [1], 13.5 nM; at Recombinant human HDAC8, more than 900 nM; on Recombinant human HDAC2 it was 34.8 nM.

For `CCC(=O)CCCCC[C@H](NC(=O)[C@H]1CC[C@]2(CC1)OC(=O)c1cccnc12)c1ncc(-c2ccc3nc(C4CC4)ccc3c2)o1` [Compound 123], the EC50 in the experiment on KARN cells (Jurkat 2C4) (setting [2]) came to 868 nM; with KARN cells (Jurkat 2C4) (setting [3]) it was 3900 nM. For the same compound, the IC50 was 34.8 nM at Recombinant human HDAC1, 7.59 nM in experiment [1], more than 15000 nM at Recombinant human HDAC8 and 94.6 nM at Recombinant human HDAC2.

As to `CCC(=O)CCCCC[C@H](NC(=O)[C@H]1CC12CCN(C)CC2)c1ncc(-c2ccc3nc(C4CC4)oc3c2)[nH]1` [Compound 160], the EC50 in the experiment on KARN cells (Jurkat 2C4) (setting [2]) was determined as 200 nM; in the experiment with KARN cells (Jurkat 2C4) (setting [3]) it was 234 nM. Further, the IC50 on Recombinant human HDAC1 was 1.89 nM; in experiment [1] it was 2.75 nM; at Recombinant human HDAC8, 16800 nM; at Recombinant human HDAC2 it was 12.1 nM.

On to `CCC(=O)CCCCC[C@H](NC(=O)[C@H]1CC12CCN(CC)CC2)c1ncc(-c2ccc3c(=O)n(C4CC4)ccc3c2)o1` [Compound 153], for which the EC50 amounted to 452 nM in the experiment on KARN cells (Jurkat 2C4) (setting [2]) and 447 nM in the experiment with KARN cells (Jurkat 2C4) (setting [3]). The IC50 on Recombinant human HDAC1 is 5.44 nM; in experiment [1], 6.14 nM; on Recombinant human HDAC8, more than 15000 nM; at Recombinant human HDAC2 it was 13.5 nM.

As for `CCC(=O)CCCCC[C@H](NC(=O)[C@H]1CC12CCN(C)CC2)c1nnc(-c2cc3ccc(C)nc3cc2OC)o1` [Compound 191], the results for the EC50 with KARN cells (Jurkat 2C4) (setting [2]) and in the experiment with KARN cells (Jurkat 2C4) (setting [3]) were 366 nM and 343 nM, respectively. Further, the IC50 was found to be 2.16 nM at Recombinant human HDAC1, 1.68 nM in experiment [1], 43200 nM on Recombinant human HDAC8 and 5.3 nM on Recombinant human HDAC2.

As for `CCC(=O)CCCCC[C@H](NC(=O)[C@H]1CC12CCN(C)CC2)c1ncc(-c2cc(OC)c3ccccc3n2)[nH]1` [Compound 170], the EC50 came to 436 nM in the experiment on KARN cells (Jurkat 2C4) (setting [2]) and 1160 nM in the experiment with KARN cells (Jurkat 2C4) (setting [3]). The IC50 was determined as 5.79 nM at Recombinant human HDAC1, 4.84 nM in experiment [1], 835 nM at Recombinant human HDAC8 and 16.9 nM on Recombinant human HDAC2.

`CCC(=O)CCCCC[C@H](NC(=O)[C@H]1CC12CCN(CC)CC2)c1ncc(-c2ccc3nc(C4CC4)ccc3c2)o1` [Compound 114]: the values for the EC50 in the experiment on KARN cells (Jurkat 2C4) (setting [2]) and in the experiment with KARN cells (Jurkat 2C4) (setting [3]) were 207 nM and 220 nM, respectively. The IC50 came to 1.12 nM on Recombinant human HDAC1, 1.04 nM in experiment [1], 27000 nM at Recombinant human HDAC8 and 4.7 nM on Recombinant human HDAC2.

Turning to `CCC(=O)CCCCC[C@H](NC(=O)[C@H]1CC12CCN(C)CC2)c1ncc(-c2ccc3c(ccc(=O)n3C)c2)o1` [Compound 109], the EC50 came to 706 nM in the experiment with KARN cells (Jurkat 2C4) (setting [2]) and 579 nM in the experiment on KARN cells (Jurkat 2C4) (setting [3]). Moreover, the IC50 at Recombinant human HDAC1 was 3.52 nM; in experiment [1] it was 2.98 nM; at Recombinant human HDAC8, more than 15000 nM; at Recombinant human HDAC2 it was 9.4 nM.

`CCC(=O)CCCCC[C@H](NC(=O)[C@H]1CC12CCN(C)CC2)c1nc(F)c(-c2cc3ccccc3nc2OC)[nH]1` [Compound 75]: the EC50 was 275 nM in the experiment with KARN cells (Jurkat 2C4) (setting [2]) and 801 nM in the experiment on KARN cells (Jurkat 2C4) (setting [3]). The IC50 on Recombinant human HDAC1 was 29.3 nM; in experiment [1], 2.59 nM; at Recombinant human HDAC8, 27300 nM; on Recombinant human HDAC2, 101 nM.

For the compound `CCC(=O)CCCCC[C@H](NC(=O)CN1CCC2(CC1)CC2)c1ncc(-c2ccc3nn(C)cc3c2)[nH]1` [Compound 155], the results for the EC50 in the experiment with KARN cells (Jurkat 2C4) (setting [2]) and in the experiment on KARN cells (Jurkat 2C4) (setting [3]) were 354 nM and 398 nM, respectively. The IC50 on Recombinant human HDAC1 is 6.91 nM; in experiment [1], 2.05 nM; on Recombinant human HDAC8, 8130 nM; on Recombinant human HDAC2, 18.4 nM.

Turning to `CCC(=O)CCCCC[C@H](NC(=O)C1CN(C)C1)c1ncc(-c2ccc3c(c2)C2CCC3C2)[nH]1` (stereo partly drawn) [Compound 73, 1-methyl-N-{(1S)-7-oxo-1-[5-(1,2,3,4-tetrahydro-1,4-methanonaphthalen-6-yl)-1H-imidazol-2-yl]nonyl}azetidine-3-carboxamide], the EC50 was 740 nM in the experiment on KARN cells (Jurkat 2C4) (setting [2]) and 1450 nM in the experiment on KARN cells (Jurkat 2C4) (setting [3]). For the same compound, the IC50 at Recombinant human HDAC1 is 31 nM; in experiment [1], 9.57 nM; on Recombinant human HDAC8, 3070 nM; on Recombinant human HDAC2, 138 nM.

Take `CCN1CCC2(CC1)C[C@@H]2C(=O)N[C@@H](CCCCCC(=O)CC1CC1)c1ncc(-c2ccc(F)cc2)[nH]1` [Compound 201]: the EC50 in the experiment on KARN cells (Jurkat 2C4) (setting [2]) was found to be 359 nM; in the experiment with KARN cells (Jurkat 2C4) (setting [3]), 403 nM. Further, the IC50 at Recombinant human HDAC1 worked out at 7.18 nM; in experiment [1], 8.06 nM; at Recombinant human HDAC8, 14200 nM; on Recombinant human HDAC2, 32.6 nM.

On to `C=CCN1CCC2(CC1)C[C@@H]2C(=O)N[C@@H](CCCCCC(=O)CC)c1ncc(-c2ccc3c(c2)C2CCC3N2CC=C)[nH]1` (stereo partly drawn) [Compound 179, (1S)—N-{(1S)-7-oxo-1-[5-(9-prop-2-en-1-yl-1,2,3,4-tetrahydro-1,4-epiminonaphthalen-6-yl)-1H-imidazol-2-yl]nonyl}-6-prop-2-en-1-yl-6-azaspiro[2.5]octane-1-carboxamide], for which the EC50 in the experiment on KARN cells (Jurkat 2C4) (setting [2]) amounted to 2410 nM; with KARN cells (Jurkat 2C4) (setting [3]), 2390 nM. Also, the IC50 on Recombinant human HDAC1 came to 58.3 nM; in experiment [1], 17.5 nM; on Recombinant human HDAC8, 8660 nM; at Recombinant human HDAC2, 380 nM.

For the compound `CCC(=O)CCCCC[C@H](NC(=O)C1=NOC2(CCN(CC)CC2)C1)c1ncc(-c2cc3ccc(C)nc3cc2OC)o1` [Compound 204], the results for the EC50 in the experiment on KARN cells (Jurkat 2C4) (setting [2]) and in the experiment with KARN cells (Jurkat 2C4) (setting [3]) were 165 nM and 152 nM, respectively. Also, the IC50 was 0.34 nM on Recombinant human HDAC1, 0.7 nM in experiment [1], more than 900 nM on Recombinant human HDAC8 and 3.9 nM at Recombinant human HDAC2.

Consider `CC(O)C(=O)CCCCC[C@H](NC(=O)[C@H]1CC12CCN(C)CC2)c1nc(-c2ccc(F)cc2)c[nH]1` (stereo partly drawn) [Compound 134, (1S)—N-{(1S)-1-[4-(4-fluorophenyl)-1H-imidazol-2-yl]-8-hydroxy-7-oxononyl}-6-methyl-6-azaspiro[2.5]octane-1-carboxamide], for which the EC50 with KARN cells (Jurkat 2C4) (setting [2]) was found to be 2410 nM; in the experiment with KARN cells (Jurkat 2C4) (setting [3]), 2190 nM. Further, the half-maximal inhibitory concentration (IC50) on Recombinant human HDAC1 amounted to 10.5 nM; in experiment [1], 4 nM; at Recombinant human HDAC8, 574 nM; on Recombinant human HDAC2, 51.6 nM.

`CCN1CCC2(CC1)C[C@@H]2C(=O)N[C@@H](CCCCCC(=O)CC1CCC1)c1ncc(-c2cc3ccc(C)nc3cc2OC)o1` [Compound 184]: the figures for the EC50 in the experiment with KARN cells (Jurkat 2C4) (setting [2]) and in the experiment on KARN cells (Jurkat 2C4) (setting [3]) were 1630 nM and 2760 nM, respectively. The IC50 at Recombinant human HDAC1 is 9.51 nM; in experiment [1], 18.4 nM; at Recombinant human HDAC8, more than 45000 nM; on Recombinant human HDAC2, 38.8 nM.

The values are drawn from patent US12590099B2, “Inhibitors of histone deacetylase useful for the treatment or prevention of HIV infection” (Merck Sharp & Dohme LLC, priority 2018, dated 2026).
